Test results published in ChEMBL document CHEMBL2034942, “Trigoxyphins H and I: two new daphnane diterpenoids from Trigonostemon xyphophylloides” (Bioorg Med Chem Lett, 2012).

Key:
[1] = Cytotoxicity against human SPC-A1 cells after 48 hrs by MTT assay; format: functional, cell-based; settings: SPCA1, 48 h
Bel-7402 = assay: Cytotoxicity against human Bel7402 cells after 48 hrs by MTT assay; format: functional, cell-based; settings: Bel-7402, 48 h

Structure (SMILES)	IC50 [1]	IC50 (Bel-7402)
C=C(C)[C@@]12OC3(c4ccccc4)O[C@@H]1[C@@H]1[C@@H]4O[C@]4(C)[C@@H](O)[C@@H]4C(=O)C(C)=C[C@@H]4[C@@]1(O3)[C@H](C)[C@@H]2OC(=O)c1ccccc1 (relative stereo)	37.3 µM	16.1 µM
C=C(C)[C@@]12OC3(c4ccccc4)O[C@@H]1[C@@H]1[C@H](OC(C)=O)[C@@](C)(OC(=O)c4ccccc4)[C@@H](OC(C)=O)[C@@]4(O)[C@@H](C[C@H](C)[C@@H]4OC(C)=O)[C@@]1(O3)[C@H](C)[C@@H]2OC(C)=O [TRIGOXYPHIN I]	11.1 µM	8.73 µM
